Bounds are passed on as bounds.

As a reminder, the melting point is the temperature, or range, at which the solid turns liquid. In turn, `COc1ccc2c(c1)C(C(Cl)(Cl)Cl)OC(C(Cl)(Cl)Cl)O2` (stereo not drawn) showed a melting point of 105 to 107 °C.
With `C=CCNC(=O)O[C@H]1C[C@@H](C(=O)OC)[C@]2(C)CC[C@H]3C(=O)O[C@H](c4ccoc4)C[C@]3(C)[C@H]2C1=O` the figure was 196 to 199 °C.
With `NC(=S)c1ccccc1Nc1cccc(C(F)(F)F)c1` the figure was 106 to 108 °C; with `CCCCCCCNC(=O)N(C)c1ncc(-c2ccc(C[C@H](OCC)C(=O)O)cc2)s1`, 97 °C.
As for `CCCn1cnc2c1c1n[nH]c(=O)n1c(=O)n2CCC`, the melting point lay in the range of 217 to 218 °C.
For `COC(=O)c1cc2ncnn2nc1NCCCN1CCC(OC(c2ccccc2)c2ccccc2)CC1`, the melting point was in the range of 120 to 122 °C.
With `CCOc1ncnc(OCC)c1NC(=S)NC(=O)c1ccccc1` the figure was 162 °C.
For `Nc1cccc2c1sc1c(Nc3cccc(Br)c3)ncnc12` the value was 216 to 217 °C; for `Cc1cnc(Cl)c(OCC(O)CNC(C)C)n1` (stereo not drawn), 109 to 110 °C; for `CCOC(=O)c1ccc2oc(CC)nc2c1`, 35 to 37 °C.
`CC(=O)OC(=O)c1ccc(N2C(=O)NC(N(CC(C)C)C(C)=O)NC2=O)cc1` showed a melting point of 134 to 137 °C.
For `O=CN1CCN(c2c(F)c(F)c3c(=O)c(C(=O)O)cn(C4CC4)c3c2F)CC1` the value was 290 to 297 °C.
For `COc1ccccc1N1CCN(CC(O)COc2ccc(CC(C)=O)cc2)CC1` (stereo not drawn) the value was 42 to 43 °C; for `CCCCNc1cc(C(=O)OCC#N)cc(S(N)(=O)=O)c1Oc1ccccc1`, 159 to 161 °C; for `NC(=O)CCn1c(=S)sc2ccc(Cl)cc21`, 215 to 217 °C.
For `N#Cc1c(N2CCN(C(=O)c3cccs3)CC2)c2ccccc2n(Cc2ccc(F)cc2)c1=O` the value was 258 °C; for `CCOc1cc2c(C)c(CCN3CCC(c4ccccc4)CC3)c(=O)oc2cc1OC`, 195 to 196 °C.
The compound `COC(=O)c1cc(N)c(F)c(-c2ccc(Cl)cc2)n1` came in with a melting point of 177 to 179 °C.
For `O=C1NC[C@@H]2CCCC[C@@H]12` (relative stereo) the value was 85 to 88 °C; for `CCCc1cc(=O)oc2c(C(C)=O)c(O)cc(O)c12`, 221 to 224 °C; for `CCC(=O)N[C@H]1CC[C@H](CCN2CCN(c3nccc4ccoc34)CC2)CC1`, 188 °C.
With `CCCc1c(OCCCCc2ccc3cc(OCc4ccccc4)c(OCc4ccccc4)cc3c2)ccc(C(=O)OCc2ccccc2)c1O` the figure was 87 to 89 °C.
For `O=[N+]([O-])c1ccc(Cl)cc1NN1CCOCC1` the value was 155 °C.
`O=C(O)c1cccc(C(=O)c2cc(Cl)cc(C(=O)c3ccccc3O)c2O)c1O`: the melting point is 127 to 130 °C.
With `O=C(O)c1c(F)c(Cl)c(O)c(Cl)c1F` the figure was 102 to 105 °C; with `CCCCCCC1CC(c2ccc(CCCC)cc2)C(=O)O1` (stereo not drawn), 37.7 °C.
As for `COc1cc2c(cc1CCNC(=O)Cc1ccccc1)CCC2`, the melting point turned out to be 135 °C.
`CC(=CC(CNC(=O)c1cccnc1)=NO)C(C)[N+](=O)[O-]` (stereo not drawn) gave a melting point of 137 to 139 °C.
For `COC(=O)c1ccc(OCCCl)cc1` the value was 56 to 58 °C; for `COC(=O)c1cc(CS(=O)(=O)c2ccccc2)cnc1C1=NC(C)(C(C)C)C(=O)N1C(=O)c1ccccc1` (stereo not drawn), 162 to 166 °C.
With `Cc1nnc(-c2ccnc(NC(=O)OC(C)(C)C)c2)o1` the figure was 290 to 291 °C; with `CNC(=O)c1ccnc(NC(=O)N2CCC3(CC2)Cc2ccccc2C3)c1`, 229 to 231 °C; with `COC(=O)n1c(=O)n(C(C)C)c2nc(=O)[nH]cc21`, 303 to 306 °C.
For `Oc1ccc2c(CCC3CCN(Cc4ccccc4)CC3)noc2c1` the value was 148 to 149 °C; for `CCN(CC)CCNC(=S)NC(=O)c1ccccc1`, 54 to 56 °C.
`CCOc1nc2c(cnn2CC)nc1C(=O)O` displayed a melting point of 128 to 130 °C.
In turn, `c1ccc(C(c2ccccc2)N2CCC2)cc1` registered a melting point of 107 to 109 °C.
With `CC(C)(C)c1cccc(S(=O)(=O)n2c(Cc3ccc(-c4n[nH]c(=O)o4)cc3)cc3cc(C(F)(F)F)ccc32)c1` the figure was 92 °C.
With `O=C1N(N2CCCCC2)c2ccccc2C1(Cc1ccccc1)Cc1ccccc1` the figure was 94 to 96 °C.
For `COC(=O)c1nc(N2CCCC2)ccc1Oc1nc(OC)cc(OC)n1` the value was 151 to 153 °C; for `CNC(=S)NCCCSc1nc(C)co1`, 73 to 74 °C; for `CC(C)(C)c1cc(C=Cc2n[nH]c(=O)o2)cc(C(C)(C)C)c1O`, over 260 °C.
`Cc1ccc(S(=O)(=O)OCC2Cc3cccc(-c4c(Cl)cccc4Cl)c3O2)cc1` (stereo not drawn): the melting point fell in the range of 178 to 180 °C.
For `N#Cc1ccc(NC(=O)[C@H]2NCC[C@@H]2O)c2ccccc12` the value was 174 to 176 °C; for `NC(=O)CC(=O)c1cn2c3c(cccc13)CCC2`, 200 to 201 °C.
With `CC1CCN(c2cc3nc(C(C)(C)C)sc3cc2N=C=S)CC1` the figure was 54 to 58 °C.
`O=C(O)C1C=Nc2c(ccc3cc(C(=O)N4CCc5ccccc5C4)cnc23)C1=O` (stereo not drawn) showed a melting point of 171 to 182 °C.
For `Cc1ccc2[nH]c(C(=O)c3ccc(Cl)cc3)c(CC(=O)O)c2c1` the value was 194 to 197 °C; for `Cc1sc(NC(=O)OC(C)(C)C)c(NC(=O)OC(C)(C)C)c1C#N`, over 300 °C; for `CCc1nc(-c2ncn3c2CCCc2ccccc2-3)no1`, 151 °C.
The compound `CC(=O)Nc1c(C(=O)c2cccc(Cl)c2)[nH]c2cc(Cl)ccc12` had a melting point of 152 to 154 °C.
For `COC(=O)c1c(Cl)cc(Cl)cc1NC(=O)CSc1ccc(NC(=O)c2cccnc2)cc1` the value was 156 to 159 °C; for `CCN(CC)CCn1c2ccccc2c(=NNC(N)=S)c2ccccc21`, 154 to 156 °C; for `CN1c2ccccc2-c2nccn2-c2ccccc21`, 194 to 197 °C.
For `COc1ccc2ccccc2c1-c1c(C)c2c(c(C)c1P(=O)(c1ccccc1)c1ccccc1)CCC2` the value was 70.8 to 72.1 °C; for `CCCCOc1c(C(=O)O)n(CC2CC2)c(=O)c2ccc(Br)cc12`, 166 to 167 °C; for `CC(=O)c1ccc(OCCCN2CCC(c3noc4cc(F)ccc34)CC2)c(N(C)C)c1`, 94 to 96 °C.
For `Fc1ccc(Cn2c(NC3CCN(CCc4cn5ccccc5n4)CC3)nc3ccccc32)cc1` the value was 208 °C.
`CC(=O)C(CC=Cc1ccccc1Cl)(CCC(=O)O)c1ccccc1` (stereo not drawn) had a melting point of 95 to 110 °C.
With `O=C1CC2CCC(=O)N2c2cc(O)cc(O)c21` (stereo not drawn) the figure was 254 to 256 °C; with `CN(c1nc(-c2cc3ccccc3[nH]c2=O)cs1)S(=O)(=O)c1cn(C)cn1`, over 300 °C.
With `COc1cc(/C=C/C(=O)Nc2ccccc2C(=O)O)ccc1OCc1cccnc1` the figure was 245 to 251 °C.
With `CNc1cc(C)nc2c(S(=O)(=O)c3ccccc3)c(SC)nn12` the figure was over 230 °C; with `Cc1ccc(O)c2[nH]c(Cc3ccccc3)nc12`, 204 to 205 °C.
For the compound `CCOC(=O)C1CCCCN1C(=O)c1ccc(Cl)c(C2(C)C(=O)N(Cc3ccc(OC)cc3OC)c3ccc(Cl)cc32)c1` (stereo not drawn), the melting point came out at 113 °C.
With `CSc1nc(Cc2ccccc2N)n[nH]1` the figure was 99 to 102 °C; with `CCOC(=O)C1CCc2c([nH]c3ccc(Cl)cc23)C1` (stereo not drawn), 141 to 142 °C; with `CN1Cc2c(C(N)=O)ncn2-c2ccsc2C1=O`, 294 to 296 °C.
For `Cc1cc2nccn2nc1OCC(C)(C)CCCCS(N)(=O)=O` the value was 169 to 170 °C.
With `NCCCCC(OP(=O)(O)CCCCc1ccccc1)C(=O)N1CCCC1C(=O)O` (stereo not drawn), the melting point lay within 160 to 175 °C.
With `CC(C)(C)OC(=O)COC[C@@H]1C[C@@H](SC(c2ccccc2)(c2ccccc2)c2ccccc2)CN1S(C)(=O)=O` the figure was 98 °C.
Compound `Brn1nnc2c3scnc3ccc21` returned a melting point of 282 to 285 °C.
In the case of `CCOC(=O)c1cn(C2CC2)c2c(C#N)c(Cl)c(F)cc2c1=O`, the melting point lay within 162 to 165 °C.
For `CCOc1cc2oc(=O)c3c(c2cc1OCC)CCN(CCN1CC2CCC(CC2)C1)C3` the value was 132 to 134 °C; for `Cc1nc(-c2ccccc2)c(C)c(O)c1C(=O)Nc1nccs1`, 266 °C; for `CCCCCCCCCCCCCCC(CCCCCCCCCCCCCC)C(=O)O`, 73.5 to 75 °C.
For `Cn1cnc(COc2ccc(-c3cc(-c4nc(C(C)(C)C)[nH]c4-c4ccccn4)ccn3)cc2)c1` the value was 156 °C; for `CC(C)(C)OC(=O)Nc1cc(CC#N)c(C#Cc2ccccc2)cc1N`, 143 °C; for `CCOP(=O)(Cc1ccc(NC(=O)/C=C/c2cnoc2-c2ccccc2)cc1)OCC`, 173 to 174 °C.
For `CCNc1ccc2ccccc2c1-c1c(P(c2ccccc2)c2ccccc2)ccc2ccccc12` the value was 83.1 °C; for `CC(CN1CCCC1)Oc1ccccc1CC(=O)N1CC2C(C1)C(c1ccccc1)(c1ccccc1)CCS2=O` (racemic), 126 °C.
As to `O=C(Nc1ccc(N2CCC(NC[C@H](O)COc3cccc4[nH]c(=O)[nH]c34)CC2)cc1)c1ccc2c(c1)OCO2`, the melting point was in the range of 160 to 169 °C.
For the compound `CNC(=O)ON=C1COCCS1`, the melting point fell in the range of 105 to 106 °C.
With `CCOC(=O)C1=C(CO)NC(CO)=C(C(=O)OCC)C1c1ccccc1Cl` the figure was 190 to 191 °C; with `COc1ccc(N)cc1CNC(C)=O`, 123 to 125 °C; with `CS(=O)(=O)Nc1ccc(C(CC2CCCC2)C(=O)Nc2nccs2)cc1` (stereo not drawn), 85 to 90 °C.
For `CCCC(=O)c1cc(-c2ccccc2)no1` the value was 89 to 90 °C; for `C=CCN(C(=O)OCc1ccccc1)c1cc(F)c(-c2cccnc2)c(F)c1`, 92 to 93 °C.

Source of the values: a melting point compilation (Tetko et al.; mined from patent text by program, amines drawn as free bases though some values may be those of a salt).
